Test results from PubChem BioAssay AID179 (DTP/NCI, 2004).
Calls of active or inactive are those of the source.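 The calls were made as follows: active = compounds giving half or more protection of infected cells from virus-caused growth loss, again on retest; inactive = the rest.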

System: CEM cells HIV-1 protection, formazan growth assay
Assay: NCI AIDS Antiviral Assay
Conditions: for IC50: measured here: growth of uninfected CEM cells
Procedure, shortened: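 Screen of anti-HIV-1 activity in human CEM cells using a formazan-based growth measurement at five drug concentrations. Hits with 50% or greater protection were repeated, and confirmation required reproducible complete protection.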

| SMILES | outcome | EC50 [µM] | IC50 [µM] |
| --- | --- | --- | --- |
| CCCCCC(O)[C@H]1C(=O)C[C@@H](O[Si](C)(C)C(C)(C)C)[C@@H]1/C=C/CCOCc1ccccc1 (stereo not given in full) | inactive |  |  |
| N#C/C(=C/NC(N)=S)C(N)=O |  | > 200 | > 200 |
| CC1OC(n2cc(F)c(=O)[nH]c2=O)CCC1O (stereo not given) |  | > 1020 | > 200 |
| N#CC(Cc1ccccc1)C(N)=O (stereo not given) |  | > 200 | > 200 |
| CCOC(=O)CC(=O)Cc1oc2c(C(C)=O)c(O)c(C)c(O)c2c1C |  | > 200 | 21.4 |
| O=C1CCCC2=C1CC1=C(CCCC1=O)N2c1ccccc1C(=O)O |  | > 200 | > 200 |
| N#Cc1c(Cl)/c(=C/O)c(=O)n2c1nc1ccccc12 |  | > 200 | 110 |
| COc1cccc(C2CC(=O)c3cccn32)c1 (stereo not given) | inactive |  |  |
| CCCCCCCCCCN=Cc1c(O)c(O)c(CCC)c2cc(C)c(-c3c(C)cc4c(CCC)c(O)c(O)c(C=NCCCCCCCCCC)c4c3O)c(O)c12 | inactive |  |  |
| Nc1ccn(C2OC(COP(=O)(O)O)C(O)C2O)c(=O)n1 (stereo not given) (tested in a mixture with another compound) |  | > 200 | 40.7 |
| CCN(CC)c1ccc(N=Nc2ccc(-c3nc4cccnc4o3)cc2)cc1 |  | > 19.5 | > 19.5 |
| CCCCCCC(=O)COP(=O)(OCC(=O)CCCCCC)OCC1C=CC(n2cc(C)c(=O)[nH]c2=O)O1 (stereo not given) |  | 0.562 | 174 |
| Cc1ccc(Cl)c2c(=O)c3ccc([N+](=O)[O-])cc3sc12 |  | > 151 | > 151 |
| CCCCOC(=O)NC(=O)c1cc2cc(Cl)cc(Cl)c2oc1=O |  | > 13.8 | > 13.8 |
| COc1ccc(N2C(=O)[C@H]3CC(C)c4c([nH]c5ccccc45)[C@H]3C2=O)cc1 (stereo not given in full) |  | > 41.7 | 0.871 |
| O=C1NC(=O)C2C(=O)NC(=O)C1C2(c1ccccc1)c1ccc(Cl)cc1 (stereo not given) |  | > 676 | 468 |
| Cc1ccsc1/C=N/Nc1ccc2ccccc2n1 |  | > 200 | 18.6 |
| CCOC(=O)c1cc(C(=O)c2ccccc2)n2nc(-c3ccc(Cl)cc3)ccc12 |  | > 50.1 | > 50.1 |
| CCOc1ccc(N(CC(=O)N2CC(=O)Nc3cc(C)c(C)cc32)C(C)=O)cc1 |  | > 13.2 | > 13.2 |
| NC(N)=NS(=O)(=O)c1ccc(NC(=O)c2cccn3c(=O)c4ccccc4nc23)cc1 | inactive |  |  |
| O=C(NCCCCCCCN1CCCCCCC1)C(C1CCCCC1)C1CCCCC1 |  | > 200 | 10.7 |
| COc1ccccc1OS(=O)(=O)c1ccc(C)cc1 | inactive |  |  |
| COC(Cc1ccccc1)NC(=O)[C@@]12CCCC[C@@H]1C=Cc1ccccc12 (stereo not given in full) |  | > 55 | 22.9 |

| SMILES | outcome | EC50 [µM] | IC50 [µM] |
| --- | --- | --- | --- |
| COc1ccc(/C=C/COC(C)=O)cc1OC | inactive |  |  |
| NC1NCCC(=O)N1CCc1c[nH]c2ccccc12 (stereo not given) |  | > 200 | 36.3 |
| COC(=O)c1cc(NC2OCC(OC(C)=O)C(OC(C)=O)C2OC(C)=O)nc(SC)c1C(=O)OC (stereo not given) |  | > 200 | > 200 |
| CCN(CC)c1c(C)nnc2c3c(-c4ccccc4)c(-c4ccccc4)nnc3nn12 |  | > 200 | > 200 |
| O=C(Nc1ccccc1)Nc1ccccn1 |  | 166 | > 200 |
| COc1ccc2c(-c3ccc(O)cc3)c(Oc3ccccc3)c(=O)oc2c1 | inactive |  |  |
| COC(=O)C1=C(O)C(C(=O)OC)[C@@]2(O)[C@@H](C(=O)OC)CC[C@@H]1[C@@H]2C(=O)OC (stereo not given in full) |  | > 200 | 38.9 |
| CCOP(=O)(OCC)C(C1OC(n2ccc(=O)[nH]c2=O)C(O[Si](C)(C)C(C)(C)C)C1O[Si](C)(C)C(C)(C)C)N(C)O (stereo not given) |  | > 200 | 4.79 |
| Nc1ccc(S(=O)(=O)NNc2nc(N3CCCCC3)nc(N3CCCCC3)n2)cc1 |  | > 200 | > 200 |
| CN(C)CC1CCC/C(=C\c2ccc(N(C)C)cc2)C1=O (stereo not given) |  | > 200 | 2.24 |
| Cc1cccc(-c2nc(=S)[nH][nH]2)c1 |  | > 955 | 417 |
| COc1ccc(OC)c2c(C(=O)O)c(C(C)c3ccccc3)ccc12 (stereo not given) | inactive |  |  |
| O=C(O)[C@@H](NS(=O)(=O)c1ccc2ccccc2c1)c1ccccc1 | inactive |  |  |
| Cc1nc(-n2nc(-c3ccccc3)cc2-c2ccccc2)sc1C(=O)/C=C/c1ccc(/C=C/C(=O)c2sc(-n3nc(-c4ccccc4)cc3-c3ccccc3)nc2C)cc1 |  | > 22.9 | > 22.9 |
| COC(=O)C1ON(C(=O)c2ccccc2)C(C)C2OC12 (stereo not given) |  | > 324 | > 324 |
| COC(=O)C1CC2c3ccccc3C1c1ccccc12 (stereo not given) |  | > 200 | > 200 |
| COC(=O)c1cc(Cc2cc(Br)c(OC)c(C(=O)OC)c2)cc(Br)c1OC |  | > 200 | 162 |
| Cc1c(C(=O)NCCO)[n+](=O)c2cc(Cl)ccc2n1[O-] |  | > 832 | 56.2 |
| COc1cc(OC)c(C(=O)/C=C/c2ccc(OC)c(OC)c2)c(OC)c1 | inactive |  |  |
| CCC1=CC2CN3CCc4c([nH]c5ccccc45)[C@@](C(=O)OC)(C2)[C@@H]13 | inactive |  |  |
| CN1C(=O)c2ccccc2NC(=O)c2cnn(C)c21 | inactive |  |  |
| CC(=O)NC(CCC(=O)c1ccc(Cl)cc1Cl)C(=O)O (stereo not given) |  | > 200 | > 200 |
| C=CCCC(=O)CC(=O)OC |  | > 1580 | > 1580 |

| SMILES | outcome | EC50 [µM] | IC50 [µM] |
| --- | --- | --- | --- |
| CC1(C)C(N2CCOCC2)CS1(=O)=O (stereo not given) |  | > 200 | > 200 |
| CCOC(=O)C[C@@]12CCCNC1(C)CCc1ccccc12 (stereo not given in full) | inactive |  |  |
| Clc1ccc(OCc2nnc(CCCCCCCCc3nnc(COc4ccc(Cl)cc4Cl)o3)o2)c(Cl)c1 |  | > 200 | 129 |
| CCCOC1OC(CS(=O)(=O)O)C(OC(C)=O)C(OC(C)=O)C1OC(C)=O (stereo not given) | inactive |  |  |
| CCOC(=O)c1cc2cc3c4c(c2oc1=O)CCCN4CCC3 |  | > 115 | > 115 |
| CC(C)(C)c1cc2c(c(C(C)(C)C)c1O)CC(=O)O2 |  | > 200 | 41.7 |
| Cc1cccc(/C=N/NC(=S)NCc2ccccn2)n1 |  | > 200 | 29.5 |
| COC(=O)C(Cc1nc2ccccc2nc1C)/C(=N\NC(N)=O)C(=O)Nc1cccc([N+](=O)[O-])c1 (stereo not given) |  | > 15.1 | > 15.1 |
| CCN(CC)CCSc1nc2c([N+](=O)[O-])cccc2[nH]1 | inactive |  |  |
| COC(=O)C12CC(c3ccccc31)C1C(=O)OC(=O)C12 (stereo not given) |  | > 132 | > 132 |
| O=C(c1c(F)c(F)c(F)c(F)c1F)n1c(=S)n(C(=O)c2c(F)c(F)c(F)c(F)c2F)c2ccccc21 |  | > 100 | 4.9 |
| C1CN2CCO[SiH](O1)OCC2 | inactive |  |  |
| CCOC(=O)c1nc2cc(C(F)(F)F)ccc2nc1Nc1ccc(C(=O)OC)s1 |  | > 50.1 | 30.9 |
| COC(=O)CCCc1ccc2c(c1)CCC2 |  | > 200 | > 200 |
| CC(Oc1ccccc1)C(=O)NN (stereo not given) |  | > 200 | > 200 |
| O=C1c2ccccc2C(=O)c2c1oc1cc(O)c(Cl)cc21 |  | > 16.6 | > 16.6 |
| Oc1ccccc1C=NCCSSCCN=Cc1ccccc1O | inactive |  |  |
| CCCCCCc1nn2c(-c3ccc(C)cc3)nnc2s1 |  | > 200 | > 200 |
| [N-]=[N+]=C1C(=O)NC(=O)N2C3CC(O)C(COC12)O3 (stereo not given) |  | > 200 | > 200 |
| CCC(=O)/C=C/c1ccccc1 |  | > 200 | 93.3 |
| CC(C)(C)c1noc2c1C(=O)c1ccccc1-2 |  | > 200 | 83.2 |
| C1=CC2C=CC(C=C1)[PH+]2c1ccccc1.C1=CC2C=CC(C=C1)[PH+]2c1ccccc1.[C-]#[O+].[C-]#[O+].[C-]#[O+].[Fe] (stereo not given) |  | > 17.8 | > 17.8 |
| CCCCn1c2c(c3ccccc3c1=O)C(=O)c1ccccc1-2 |  | > 69.2 | 33.9 |

| SMILES | outcome | EC50 [µM] | IC50 [µM] |
| --- | --- | --- | --- |
| CCN(CC)P1CCP(c2ccccc2)CC1 (stereo not given) |  | > 37.2 | > 37.2 |
| CCOC(=O)n1[nH]c(=O)n(-c2ccccc2)c1=O |  | > 200 | > 200 |
| COc1cccc(C2N3CCCCC3[C@@H]3c4[nH]c5ccccc5c4CCN23)c1OC (stereo not given in full) |  | > 33.9 | > 33.9 |
| CCN(CC)CCCC(C)Nc1c2cc(OC)cc(C)c2nc2c(C)c(Cl)ccc12 (stereo not given) | inactive |  |  |
| CC(C)(C)C1COP(=S)(c2ccccc2)OC1 (stereo not given) |  | > 69.2 | > 69.2 |
| O=C(Nc1ccc(C2=NCCN2)cc1)c1ccc(C(=O)Nc2ccc(C3=NCCN3)cc2)c(F)c1 |  | 120 | > 200 |
| C[C@]12CC(O)C3[C@@H](CC=C4CC(O)CC[C@@]43C)C1CCC2O (stereo not given in full) | inactive |  |  |
| N=c1oc2ccc3ccccc3c2cc1-c1nc2ccccc2c(=O)[nH]1 |  | > 50.1 | 7.24 |
| C[n+]1cccc2ccc3cccnc3c21 |  | > 200 | 7.94 |
| CCOC(=O)CC(CC(=O)OCC)n1cnc2c(N)ncnc21 | inactive |  |  |
| Cc1ccc2c(c1)C(=O)C1(Cc3ccccc3C1=O)C2 (stereo not given) |  | > 200 | > 200 |
| O=C(O)CSCCCCSCC(=O)O |  | > 1050 | > 1050 |
| N#Cc1c(N)nc2c3c1NC(=O)C(C(N)=O)C3c1ccccc1O2 (stereo not given) |  | > 200 | > 200 |
| COc1ccc2c(c1)CCc1[nH]c3ccccc3c1CCCC2 |  | > 61.7 | 57.5 |
| CC(C)(C)OC(=O)NCCNC(=O)CN(CC(=O)O)C1CCCCC1N(CC(=O)O)CC(=O)O (stereo not given) |  | > 200 | 170 |
| O=C(O)c1cc([N+](=O)[O-])cc([N+](=O)[O-])c1/C=C/n1c(=S)[nH]c2ccc([N+](=O)[O-])cc21 |  | > 100 | 91.2 |
| N#C/C(=C\NC(=S)N=Nc1c(O)[nH]c2ccccc12)c1nc2ccccc2s1 |  | > 200 | > 200 |
| Cc1ccc(SS(=O)(=O)c2ccc([N+](=O)[O-])cc2)cc1 |  | > 60.3 | 40.7 |
| Cc1ccc(N=Nc2c(O)c3ccccc3[nH]c2=O)c(S(=O)(=O)N(C)C)c1 |  | > 200 | > 200 |
| O=C1c2ccccc2CCC1(Br)Cc1ccccc1 (stereo not given) |  | > 200 | 20.4 |
| CC(=O)OCC1OC(OCCCOP(=O)(OCCC#N)OCC2OC(n3cnc4c(N)ncnc43)C(OC(=O)c3ccccc3)C2OC(=O)c2ccccc2)C(OC(C)=O)C(OC(C)=O)C1OC(C)=O (stereo not given) |  | > 100 | > 100 |
